From a melting point compilation (Tetko et al.; mined from patent text by program, amines drawn as free bases though some values may be those of a salt)

Compound | melting point [°C]
CSc1cnc(NC(=O)C(Cc2ccc(F)cc2)c2ccc(S(C)(=O)=O)cc2)cn1 (stereo not given) | 188
Cc1nc(N)c2nc(C)n(CCOCCNC(=O)N3CCOCC3)c2c1C | 205 to 207
CCCC(O)c1ccc(C(=O)O)cc1 (stereo not given) | 109 to 113
COCC(=O)N1CCN(CCc2ccc(-c3cccc(N)n3)cc2)CC1 | 148 to 150
O=C(O)c1cn(C2CC2)c2c(Cl)c(N3CCC(CNCCF)C3)c(F)cc2c1=O (stereo not given) | 138 to 142
N#Cc1nn(-c2c(Cl)cc(C(F)(F)F)cc2Cl)c(N)c1-c1ccc(F)c(Cl)c1 | 197 to 198
C=CCc1c(C)nc(C)c(C(=O)Nc2c(CC)cc(C)cc2CC)c1Cl | 192 to 194
NC(=O)CNC(=O)c1cccc(-c2cccc3oc(Cc4cccc(C(F)(F)F)c4)cc23)c1 | 105 to 106
CC(=NO)C(C)(C)NN(C)CCNC(C)(C)C(Cn1ccnc1[N+](=O)[O-])=NO | 132 to 134
CCSc1c(C#N)nn(-c2c(Cl)cc(C(F)(F)F)cc2Cl)c1Br | 134 to 140
CC1N=Cc2cc(Cl)ccc2-n2c(Cc3ccccc3)nnc21 (stereo not given) | 195 to 197
CN1CCC(c2c[nH]c3ccc(NC(=O)c4ccccc4F)nc23)CC1 | 125 to 126
O=C1CCCC2(c3ccccc3)NCCCN12 (stereo not given) | 120
CCCCc1ccc(CCCCC(COC(C)=O)(COC(C)=O)NC(C)=O)cc1 | 68 to 71
CC(O)(c1ccsc1)c1nccs1 (stereo not given) | 120 to 122
CC(C)n1nc(-c2cc(C#N)cnc2-c2ccccc2)ccc1=O | 133 to 135
CC(=O)NN=C(c1ccccc1)c1cc(C(C)(C)C)c(O)c(C(C)(C)C)c1 | 205 to 206
CSc1ncc(C(C)c2cccnc2)c(=O)[nH]1 (stereo not given) | 201 to 204
COc1ccc(F)cc1OCC=O | 92.5 to 95
CCOC(=O)c1ncc(C)c(-c2ccccc2)c1C(=O)N(CCO)Cc1cc(C(F)(F)F)cc(C(F)(F)F)c1 | 138 to 139
Cc1cccc(C(=O)Nc2ccc(C(=O)N3Cc4cccn4Cc4ccccc43)cc2)c1C | 168 to 170
Cc1c(Cl)cccc1S(=O)O | 112
CC12CCC(OC(=O)c3ccccc3)CC1=CCC1C2CCC2(C)C(=NO)CCC12 (stereo not given) | 165 to 170
O=C1CCC(c2ccc(O)cc2)=NN1c1ccccn1 | > 220
Nc1nc(C2CCN(C(=O)c3ccccc3)CC2)c2cc(Cl)ccc2n1 | 155 to 158

Compound | melting point [°C]
CSc1nnc(C(C)(C)C)[nH]1 | 191 to 194
O=C(O)c1c[nH]c2cn[nH]c2c1=O | > 330
CC(=O)C(=O)Nc1ccc(Cl)cc1 | 151
CNc1nc(-c2cccc(NC(=O)c3ccc(N(C)C)nc3)c2)c2cc(OC)c(OC)cc2n1 | 149 to 151
Cc1cc(CCCOc2c(C)cc(-c3noc(CI)n3)cc2C)on1 | 89 to 90
COC(=O)c1ccc(CNC(=O)c2[nH]c(-c3ccoc3)cc2-c2ccc(O)cc2)cc1 | 223 to 224
COC1CSC2=C(SC1)C(OC(=O)N1CCN(C)CC1)N(c1ccc3ccc(Cl)cc3n1)C2=O (stereo not given) | 228
CN(C)C1(Cc2ccccc2)CCC(O)(c2csc3ccccc23)CC1 (stereo not given) | 158 to 160
CN(C)CCCCCCOc1ccc(CC(=O)c2ccccc2)cc1 | 53 to 54
CN(C)S(=O)(=O)c1ccc(Br)cc1 | 90 to 92
CON(Cc1ccc(F)c(C)c1)C(=O)C1=C(O)C(=O)N(C)C1 | 160 to 164
Cn1cnc(COc2nn3c(-c4ccccc4F)nnc3cc2-c2ccsc2)n1 | 216 to 218
c1ccc(COc2cccc(CCCn3ccnc3)c2)cc1 | 82 to 83
Cc1ccc(-n2c(=O)c(O)nc3cccnc32)cc1 | > 300
COC(=O)C(CC1(C)C(=O)Nc2ccccc21)NC(=O)c1ccc(Cl)cc1 (stereo not given) | 201 to 202
C#CCC1CC2C(CCC3(C)C(=O)CCC23)C2CCC(=O)C=C12 (stereo not given) | 186 to 188
O=c1[nH]c2cc(O)ccc2c2oc3ccccc3c12 | > 300
CCCc1c(OCCCC(=O)NCCCCCCc2cccnc2)ccc(C(C)=O)c1O | 69 to 71
CC(=O)Nc1ccc2c(c1)COCO2 | 133 to 134
Cc1ccc(-c2cccc(C(=O)O)n2)cc1C(=O)NCC12CC3CC(CC(C3)C1)C2 | 227
CON(C)C(=O)c1cc2c3c(c1)c(-c1cccc(Cl)c1)cc(=O)n3CC2 | 162
CCOC(=O)c1[nH]cc(C)c(=O)c1C | 124 to 126
CSc1nnc(-c2cccs2)n1C | 83 to 85
N=C(N)c1ccc(C(=O)N[C@@H](Cc2ccc(O)cc2)C(=O)N2CCC(OCC(=O)O)CC2)cc1 | 88 to 90
CC(=O)Nc1ccc(SC2SCC(O)C(O)C2O)cc1 (stereo not given) | 226 to 233

Compound | melting point [°C]
CC(C)(C)OC(=O)NCC1CNC1 | 112 to 114
O=S(=O)(NCCc1ccc(Cc2nnn[nH]2)cc1)c1ccc(Cl)cc1 | 168 to 169
O=[N+]([O-])c1cccc([N+](=O)[O-])c1F | 50
CC[C@@H](c1ccccc1)N(Cc1ccc(C(N)=O)cc1)S(=O)(=O)c1ccc(Cl)cc1 | 158 to 159
COC1(OC)CC(c2ccccc2)N(O)C(c2ccccc2)C1 (stereo not given) | 172 to 175
O=Cc1cccc(C(CC2=NCCN2)c2ccccn2)c1 (stereo not given) | 138 to 139
O=C1OC(CCI)C(O)=C1OCc1ccccc1 (stereo not given) | 101 to 104
COc1cc(C(=O)NS(=O)(=O)c2ccccc2Cl)ccc1Cc1cn(C)c2ccc(CC3CCN(C)C3=O)cc12 (stereo not given) | 128 to 135
CCCSc1cccc2c1C(=O)c1cccc(SCCC)c1C2=O | 232 to 233
O=C(O)CCC(=O)c1ccc(N2CCCCC2)cc1 | 150 to 151
CNCC(O)c1cccc(F)c1 (stereo not given) | 63 to 65
CCCCC[C@H]1CC[C@H](CCc2ccc(O)c(C#N)c2C#N)CC1 | 100 to 102
COc1cc2ncc(C#N)c(Nc3ccc(C(N)=O)cc3)c2cc1OC | > 250
Cc1ccnc(NC(c2ccc(C(F)(F)F)cc2)c2ccc3cccnc3c2O)c1 (stereo not given) | 104 to 107
C#CCCCOc1cc(/C=C/C(=O)Nc2ccccc2C(=O)O)ccc1OC | 154 to 156
C=C1SC(=S)N(c2cccc3c(-c4ccc(OC)c(C56CC7CC(CC(C7)C5)C6)c4)cccc23)C1=O | 322 to 324
CC1(c2cc(-c3cccc(C=C4SC(N5CCCC5)=NC4=O)c3)ccc2O)CCCCC1 | 278 to 280
CC(=O)NC[C@H]1CN(c2ccc(C3(F)CCNCC3)c(F)c2)C(=O)O1 | 163 to 165
O=C(Nc1cccc2c(=O)cc(C(=O)O)oc12)c1ccc2c(c1)CC(COCc1ccccc1)O2 (stereo not given) | 184 to 188
CCCCCC[C@@H](C)Oc1cc2sc(C(=O)OC)c(O)c2cc1[N+](=O)[O-] | 54 to 55
CN(C)NC(=O)N(O)C1c2ccccc2Oc2ccccc21 | 196 to 198
COc1ccc2ccc(NC(=O)c3cccc(N(C)C)c3)nc2n1 | 130
CC(Cc1ccccc1)CN(C)C1CCC(c2ccc3[nH]c(=O)oc3c2)CC1 (stereo not given) | 43 to 48
Cc1cccc2c1N(CC(=O)c1ccccc1O)C(=O)C(NC(=O)Nc1cccc(-c3nnn[nH]3)c1)N=C2c1ccccc1F (stereo not given) | 221 to 225
CS(=O)c1nc2ccc(C(F)(F)F)cc2[nH]1 (stereo not given) | 135

Compound | melting point [°C]
CCOC(=O)Cc1c(-c2ccccc2)c2cc3c(cc2oc1=O)C(=O)OC3 | 222 to 223
CCNC(=O)c1occc1[Si](C)(C)C | 69 to 72
Clc1cccc(-c2nc(NC3CCCCC3)c3ccccc3n2)n1 | 218 to 221
CC(C)(C)c1cc(C=C2SC(NCO)=NC2=O)cc(C(C)(C)C)c1O | 177 to 179
COc1cc2ncnc(N3CCN(C(=S)NCc4ccc(Br)cc4)CC3)c2cc1OC | 217 to 218
CC(C)Oc1c(C(=O)Nc2nnn[nH]2)sc2c1CS(=O)(=O)CC2 | 230 to 232
CCOC(=O)C(Cc1cn(C)c2c(Cl)cccc12)(NC=O)C(=O)OCC | 83 to 87
CCC(Oc1cccc2ccccc12)C(=O)OC1CC(O)C=C2C=CC(C)C(CCC3CC(O)CC(=O)O3)C21 (stereo not given) | 138 to 140
CCOC(=O)C1(C(=O)OCC)CCC2(c3cc(OC)c(OC)cc3CCN2C(=O)CCN(C)C)C(C2c3cc(OC)c(OC)cc3CCN2C(C)=O)C1 (stereo not given) | 154 to 156
Cc1c(C(=O)c2ccc(Cl)c(S(N)(=O)=O)c2)sc2ccccc12 | 210
Fc1cc(Cl)ccc1C1(Br)NNC2=C1CCCC2 (stereo not given) | 95 to 98
CCNc1ccc(-n2c(C(F)(F)F)nn(C)c2=S)c(Cl)c1 | 87 to 90
CC(C)Cn1c(CNC(=O)OC(C)(C)C)c(-c2ccc(Cl)cc2)c2cc(O)ccc2c1=O | 220 to 221
CCOC(=O)C(=O)Nc1ccncc1 | 110 to 113
COc1cc(C(OC(C)=O)C(COC(C)=O)[N+](=O)[O-])ccc1OC(C)=O (stereo not given) | 97 to 100
Cc1cccc(S(=O)(=O)N2CCn3c(c(C(N)=O)c(Cl)c3-c3ccccc3)C2)c1 | 165 to 167
CC12CCC3c4ccc(OC(=O)c5ccccc5)cc4CCC3C1CCC2OC(=O)c1cccnc1 (stereo not given) | 151 to 154
CS(=O)(=O)c1ccc(-c2cnn(-c3ccc(F)c(F)c3)c(=O)c2Oc2ccc(F)cc2)cc1 | 178 to 180
CC(C)c1ccc(C(=O)C(=O)c2ccccc2)c(C(C)C)c1OS(N)(=O)=O | 106 to 109
CCCCCCCCCCCCCCCCCNC(=O)OCCSCCOC(=O)N(Cc1ccccn1)C(C)=O | 62 to 63
Cc1ccc(-c2ccc(F)cc2)cc1-c1c(O)c(C)nn(C)c1=O | 216 to 217
CC(C)c1cccc(C(C)C)c1NC(=O)CNC(c1ccccc1)c1ccc(O)cc1 (stereo not given) | 190 to 192
CC1OCC(=O)N(C(=O)O)C1c1ccc(F)c(F)c1 (single isomer, unassigned; (+)) | 191 to 194
CCC(=O)C(CCCOc1ccc(OCCCC(C(=O)CC)C(=O)CC)cc1)C(=O)CC | 57 to 58
CN(C)c1nc2cc(Cl)c(Cl)cc2n1C1CC(CO)C(O)C1O (stereo not given) | 190 to 193
